Data on five compounds can be found in patent US20210220384A1, “ORAL ADMINISTRABLE PHARMACEUTICAL COMPOSITION” (TAIHO PHARMACEUTICAL CO., LTD., priority 2012, published 2021).

The series is described as follows: Critical relative humidity of additives by moisture sorption analyzer (Test Example 1). It is filed as physicochemical. To be noted: of the additive (excipient) alone, moisture sorption analyzer DVS-1. The method, then:
The orally administrable pharmaceutical composition of the present invention, to which sugars having a critical relative humidity of 85% or more at 25° C. as an excipient is added, suppresses increases in FTD and TPI related substances even stored under high-humidity conditions. A “critical relative humidity” herein means a well-known indicator representing the hygroscopicity, and refers to a relative humidity when a rapid increase in the amount of moisture absorbed in a sample is observed in the case where the relative humidity is increased. The critical relative humidity can be checked by measuring the change in the weight of a sample at 25° C. and a relative humidity of from 10 to 95% using, for example, a moisture sorption analyzer (DVS-1, Surface Measurement Systems Ltd.). “A critical relative humidity at 25° C. is 85% or more” means that moisture is not substantially absorbed when the relative humidity at 25° C. is less than 85%. Also, “no critical relative humidity” means that moisture is absorbed at a low humidity depending on the humidity, and a rapid increase in the amount of moisture absorbed associated with an increase in the relative humidity is not observed.
The critical relative humidity of additives at 25° C. shown in Tables 1 and 2 was measured using a moisture sorption analyzer (DVS-1, Surface Measurement Systems Ltd.).
On to `OC[C@@H](O)[C@@H](O)[C@H](O)[C@H](O)CO` [D-mannitol], for which the “Critical relative humidity (%, at 25° C.)” value was 95 or more %. Consider `O.OC[C@H]1O[C@@H](O[C@H]2[C@H](O)[C@@H](O)C(O)O[C@@H]2CO)[C@H](O)[C@@H](O)[C@H]1O` (some centres unmarked) [Lactose hydrate, lactose hydrate], for which the “Critical relative humidity (%, at 25° C.)” value was 95 or more %.

On to `OC[C@H]1O[C@@](CO)(O[C@H]2O[C@H](CO)[C@@H](O)[C@H](O)[C@H]2O)[C@@H](O)[C@@H]1O` [Sucrose, sucrose], for which the “Critical relative humidity (%, at 25° C.)” value is given as 85 or more %. With `OC[C@@H](O)[C@@H](O)[C@H](O)[C@@H](O)CO` [D-sorbitol] the figure was 50-60%; with `OC[C@@H](O)[C@H](O)[C@@H](O)CO` [Xylitol, xylitol], 75-85%.
